Where two headings read alike, the source gives them in different places.
Experiments:
[1] = Biopharmaceutic and physicochemical profile
[2] = test system: MYC gene expression in Raji Burkitt's lymphoma cells; design: method as in Investigator's Brochure; details: ref Investigator's Brochure, read-out: mean IC50, inhibition of MYC gene expression; cited from earlier work
OCI-LY-3 (ABC DLBCL) = test system: OCI-LY-3 (ABC DLBCL); design: method as in Report CC-90010-Pharm-1018; details: OCI-LY-3, Experiment 1, ref Report CC-90010-Pharm-1018; read-out: absolute IC50, proliferation; cited from earlier work
OCI-LY-19 (GCB DLBCL) = test system: OCI-LY-19 (GCB DLBCL); design: method as in Report CC-90010-Pharm-1018; details: OCI-LY-19, Experiment 1, ref Report CC-90010-Pharm-1018; read-out: absolute IC50, proliferation; cited from earlier work
FARAGE (GCB DLBCL) = test system: FARAGE (GCB DLBCL); design: method as in Report CC-90010-Pharm-1018; details: read-out: absolute IC50, proliferation, cited from earlier work
OCI-LY-10 (ABC DLBCL) = test system: OCI-LY-10 (ABC DLBCL); design: method as in Report CC-90010-Pharm-1018; details: OCI-LY-10, Table 2, ref Report CC-90010-Pharm-1018; read-out: absolute IC50, proliferation; cited from earlier work
WSU-DLCL2 (DOX-R) = test system: WSU-DLCL2 (DOX-R); design: method as in Report CC-90010-Pharm-1018; details: Table 2, ref Report CC-90010-Pharm-1018, read-out: absolute IC50, proliferation; cited from earlier work
[3] = test system: 14 PDX-derived GBM tumor models; design: method as in Investigator's Brochure; details: ref Investigator's Brochure, cited from earlier work
[4] = test system: MYC expression in COH70 TNBC PDX tumor; design: method as in Investigator's Brochure; details: ref Investigator's Brochure, cited from earlier work
[5] = design: method as in Investigator's Brochure; details: 2 hours postdose, ref Investigator's Brochure, cited from earlier work
COH70 TNBC PDX = test system: COH70 TNBC PDX; design: method as in Unpublished data from Celgene Corporation; details: Day 38, ref Unpublished data from Celgene Corporation, cited from earlier work
[6] = design: method as in Investigator's Brochure; details: dogs, ref Investigator's Brochure, cited from earlier work
CYP2C19 = test system: CYP2C19; design: method as in Investigator's Brochure; details: CYP2C19, ref Investigator's Brochure; read-out: IC50, direct inhibition; cited from earlier work
CYP2D6 = test system: CYP2D6; design: method as in Investigator's Brochure; details: CYP2D6, ref Investigator's Brochure; read-out: IC50, direct inhibition; cited from earlier work
[7] = test system: CYP1A2, CYP2A6, CYP2B6, CYP2E1 and CYP3A4/5; design: method as in Investigator's Brochure; details: CYP1A2, CYP2A6, CYP2B6, CYP2E1 and CYP3A4/5, ref Investigator's Brochure; cited from earlier work
[8] = test system: CYP1A2, CYP2B6 and CYP3A4 mRNA; design: method as in Investigator's Brochure; details: 0.01 to 10 µM, up to 3 days, CYP1A2, CYP2B6, CYP3A4, ref Investigator's Brochure; cited from earlier work
P-gp [9] = test system: P-gp; design: method as in Investigator's Brochure; details: ref Investigator's Brochure, read-out: IC50, transporter inhibition; cited from earlier work
OAT1 = test system: OAT1; design: method as in Investigator's Brochure; details: OAT1, 30 µM, ref Investigator's Brochure; cited from earlier work
P-gp [10] = test system: P-gp; design: method as in Investigator's Brochure; details: ref Investigator's Brochure; cited from earlier work
[11] = test system: BCRP, MRP2, OAT1, OAT3, OATP1B1, OATP1B3 and OCT2; design: method as in Investigator's Brochure; details: MRP2, OAT1, OAT3, OATP1B1, OATP1B3 and OCT2, ref Investigator's Brochure; cited from earlier work
[12] = design: method as in Investigator's Brochure; details: ref Investigator's Brochure, cited from earlier work
[13] = test system: human ether-à-go-go-related gene (hERG); design: method as in Investigator's Brochure; details: ref Investigator's Brochure; cited from earlier work
[14] = ref Investigator's Brochure, cited from earlier work

## Cn1cc(-c2cc(S(C)(=O)=O)ccc2OCC2CC2)c2ccccc2c1=O [trotabresib]
[1]
  ionization: non-ionizable
[1]; data on file
  Biopharmaceutics Classification System (BCS) behavior: Category II like
[2]
  IC50: 60 nM
OCI-LY-3 (ABC DLBCL)
  IC50: 510 nM
OCI-LY-19 (GCB DLBCL)
  IC50: 220 nM
FARAGE (GCB DLBCL); FARAGE, Experiment 1, ref Report CC-90010-Pharm-1018
  IC50: 710 nM
FARAGE (GCB DLBCL); Farage, Experiment 2, ref Report CC-90010-Pharm-1018
  IC50: 3350 nM
OCI-LY-10 (ABC DLBCL)
  IC50: 418 nM
WSU-DLCL2 (DOX-R)
  IC50: ~360 nM
[3]; read-out: overall mean IC50, colony formation
  IC50: 620 ± 130 nM
[3]
  activity range of IC50 values: 18 fold
[4]; COH70, 2 mg/kg, at 2 hours
  maximal suppression of MYC expression: 51.3%
[4]; COH70, 10 mg/kg, at 4 hours
  maximal suppression of MYC expression: 63.4%
[5]; COH70, 2 mg/kg
  maximally-measured tumor level: 1.3 ± 0.3 µM
[5]; COH70, 10 mg/kg
  maximally-measured tumor level: 6.7 ± 1.7 µM
COH70 TNBC PDX; COH70, 12.5 mg/kg/dose PO QD 3 days on/4 days off
  mean percent TGI: 64%
COH70 TNBC PDX; COH70, 16 mg/kg/dose PO QD 3 days on/4 days off
  mean percent TGI: 68%
COH70 TNBC PDX; COH70, 20 mg/kg/dose PO QD 3 days on/4 days off
  mean percent TGI: 72%
[6]
  mean oral bioavailability: 76%
[6]; toxicokinetics
  accumulation after repeat dosing: up to 3 fold
CYP2C19
  IC50: ≥ 13.9 µM
CYP2D6
  IC50: ≥ 13.9 µM
[7]
  direct inhibitory effect: little to no direct inhibitory effect
[8]
  increase in mRNA over vehicle control: < 2 fold
P-gp [9]
  IC50: 2000 nM
OAT1
  inhibition of mediated transport: 45.6%
P-gp [10]
  transporter substrate status: substrate of P-gp
[11]
  transporter substrate status: not a substrate
[12]; 4-week rat study, 3 days on/4 days off
  severely toxic dose: ≥ 20 mg base/kg/dose
[12]; 3 days-on/4 days-off schedule
  overarching rat STD10: 20 mg base/kg/dose
[12]; female rats
  STD10: 20 mg base/kg/dose
[12]; male rats
  STD10: 30 mg base/kg/dose
[12]; rat
  functional observational battery (FOB) effects: no CC-90010-related FOB effects
[12]
  mean exposure corresponding to the rat STD10: 52800 ng·h/mL
[13]
  IC50: 24.3 µM
[14]; 4-week Beagle dog study
  severely toxic dose: 7.50 mg base/kg/dose
[14]; conscious Beagle dogs
  cardiovascular and respiratory effects: no CC-90010-related effects on electrocardiograms, heart rate
[14]; dog, 3-days-on/4-days-off schedule
  highest non-severely toxic dose (HNSTD): 3.75 mg base/kg/dose
[14]
  mean exposure corresponding to the dog HNSTD: 10000 ng·h/mL

Source: publication PMC10011554, “BET inhibitor trotabresib in heavily pretreated patients with solid tumors and diffuse large B-cell lymphomas” (Nature Communications, 2023)
